Data set [1] has as its system Pseudomonas aeruginosa ATCC 27853. Format: cell-based.
The subject of data set [2] is staphylococcal extracellular peptidases (aureolysin; staphopains A, B, and C; V8 peptidase). Conditions: 30 μM, pH 6.4 or pH 7.5/7.8, enzyme/bacteriocin 1:20 by weight, 1 h at 37 °C; radial diffusion assay and HPLC; triplicate. The protocol: For pH, temperature, and protease resistance assays, the residual activity of BacCH91 was determined using the radial diffusion assay (Lemos Miguel et al. [2008]). In brief, plates were prepared containing 200× diluted overnight culture of S. lutea ATCC 9341 in TSB agar (1 %, w/v). Wells (2.4 mm diameter) were cut in the agar and filled with 10 μl of the BacCH91 preparation for testing. Following overnight incubation at 37 °C, the residual activity was measured as the diameter of inhibition zones.
We evaluated the susceptibility of BacCH91 to proteolysis by aureolysin; staphopains A, B, and C; V8 peptidase (Biocentrum); bovine alpha-chymotrypsin and TPCK-treated trypsin (Sigma); human elastase and cathepsin G (Biocentrum); pepsin from porcine gastric mucosa (Sigma); and proteinase K (A&A Biotechnology). […] The residual activity was determined with the radial diffusion assay using S. lutea as an indicator strain, and the bacteriocin molecule integrity was assessed using HPLC. […]

Usually MIC stands for the least concentration at which growth counts as inhibited. The low end stands for inhibition by little substance, the high end for a need for much substance.

Consider `C/C=C(\NC(=O)[C@H](CCCCN)NC(=O)CNC(=O)[C@@H]1CS[C@@H](C)[C@@H](NC(=O)[C@@H]2CSC[C@@H](NC(=O)/C(=C/C)NC(=O)[C@@H](N)[C@@H](C)CC)C(=O)N[C@@H](Cc3ccccc3)C(=O)N[C@@H]([C@@H](C)CC)C(=O)NCC(=O)N2)C(=O)N2CCC[C@H]2C(=O)NCC(=O)N1)C(=O)NCC(=O)N[C@@H]1CSC[C@@H]2NC(=O)[C@H](Cc3ccccc3)NC(=O)[C@@H](CS/C=C\NC2=O)NC(=O)[C@H](CC(N)=O)NC(=O)[C@H](Cc2ccccc2)NC1=O` [BacCH91], for which the MIC in data set [1] is more than 100 µM. Besides, the “effect of staphylococcal peptidases on BacCH91” value in data set [2] was “not affected”.

The values are drawn from article PMC3724985, “Isolation, biochemical characterization, and cloning of a bacteriocin from the poultry-associated Staphylococcus aureus strain CH-91” (Applied Microbiology and Biotechnology, 2012).
